Laboratory results as given in patent US20060223996A1, “IL-12 modulatory compounds” (Synta Pharmaceuticals Corp., priority 2004, published 2006).

Tested on: IL-12
Assay: Human in vitro assay: inhibition of IL-12 production in IFNγ/LPS- or IFNγ/SAC-stimulated human PBMC or THP-1 cells (ELISA)
Assay type: cell-based
Details: read-out: IC50 Range (representative in vitro IC50 data)
Method in brief: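 PBMC (5×10^5 cells/well) primed with IFNγ 30 U/mL for 22 h then LPS 1 μg/mL, or IFNγ 100 U/mL then SAC 0.01%; THP-1 primed with IFNγ 100 U/mL for 22 h then SAC 0.025%, with compound in 0.25% DMSO. Supernatant IL-12 p70/p40 measured by sandwich ELISA after 18 h; IC50 derived; viability by MTS.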

Row | Compound | IC50 [nM]
1 | Cc1c[nH]c2ccc(NC(=O)c3cc(N4CCC(O)CC4)nc(N4CCOCC4)n3)cc12 [Compound 187, 6-(4-Hydroxy-piperidin-1-yl)-2-morpholin-4-yl-pyrimidine-4-carboxylic acid (3-methyl-1H-indol-5-yl)-amide] | < 1000
2 | O=C(Nc1ccc2c(c1)CCC2)Nc1cc(N2CCOCC2)nc(OCCN2CCOCC2)n1 [Compound 120, 1-Indan-5-yl-3-[6-morpholin-4-yl-2-(2-morpholin-4-yl-ethoxy)-pyrimidin-4-yl]-urea] | ≥ 1000
3 | CCc1c[nH]c2ccc(NC(=O)c3cc(N4CCN(C(C)=O)CC4)cc(N4CCOCC4)n3)cc12 [Compound 181, 4-(4-Acetyl-piperazin-1-yl)-6-morpholin-4-yl-pyridine-2-carboxylic acid (3-ethyl-1H-indol-5-yl)-amide] | < 1000
4 | NC(=O)c1cccc(NC(=O)c2cc(OCCN3CCOCC3)nc(N3CCOCC3)n2)c1 [Compound 25, 2-Morpholin-4-yl-6-(2-morpholin-4-yl-ethoxy)-pyrimidine-4-carboxylic acid (3-carbamoyl-phenyl)-amide] | < 1000
5 | O=C(Nc1cc(OCCc2ccccn2)nc(N2CCOCC2)n1)c1ccc2[nH]ccc2c1 [Compound 73, 1H-Indole-5-carboxylic acid [2-morpholin-4-yl-6-(2-pyridin-2-yl-ethoxy)-pyrimidin-4-yl]-amide] | ≥ 1000
6 | O=C(Nc1ccc2c(C(F)(F)F)cc(=O)oc2c1)c1cc(NCCN2CCOCC2)nc(N2CCOCC2)n1 [Compound 192, 2-morpholino-6-(2-morpholinoethylamino)-N-(2-oxo-4-(trifluoromethyl)-2H-chromen-7-yl)pyrimidine-4-carboxamide] | ≥ 1000
7 | CC(=O)N1CCN(c2cc(C(=O)Nc3ccc4[nH]cc(C)c4c3)nc(N3CCOCC3)n2)CC1 [Compound 261, 6-(4-acetylpiperazin-1-yl)-N-(3-methyl-1H-indol-5-yl)-2-morpholinopyrimidine-4-carboxamide] | < 1000
8 | O=C(Nc1cccc(-n2cccn2)c1)Nc1cc(OCCN2CCOCC2)nc(N2CCOCC2)n1 [Compound 327, 1-[2-Morpholin-4-yl-6-(2-morpholin-4-yl-ethoxy)-pyrimidin-4-yl]-3-(3-pyrazol-1-yl-phenyl)-urea] | ≥ 1000
9 | Cc1[nH]c2ccc(NC(=O)c3cc(N4CCN(CCO)CC4)nc(N4CCOCC4)n3)cc2c1C [Compound 94, 6-[4-(2-Hydroxy-ethyl)-piperazin-1-yl]-2-morpholin-4-yl-pyrimidine-4-carboxylic acid (2,3-dimethyl-1H-indol-5-yl)-amide] | < 1000
10 | O=C(Nc1ccnc(N2CCCC2)c1)c1cc(OCCN2CCOCC2)nc(N2CCOCC2)n1 [Compound 151, 2-Morpholin-4-yl-6-(2-morpholin-4-yl-ethoxy)-pyrimidine-4-carboxylic acid (2-pyrrolidin-1-yl-pyridin-4-yl)-amide] | < 1000
11 | O=C(Nc1cc(OCCN2CCOCC2)nc(N2CCOCC2)n1)Nc1cccc2ncccc12 [Compound 140, 1-[2-Morpholin-4-yl-6-(2-morpholin-4-yl-ethoxy)-pyrimidin-4-yl]-3-quinolin-5-yl-urea] | ≥ 1000
12 | Cc1cccc(NC(=O)Nc2nc(OCCc3ccccn3)cc(N3CCOCC3)n2)c1 [Compound 71, 1-[4-Morpholin-4-yl-6-(2-pyridin-2-yl-ethoxy)-pyrimidin-2-yl]-3-m-tolyl-urea] | ≥ 1000
13 | CN(C)c1cccc(NC(=O)c2cc(OCCN3CCOCC3)cc(N3CCOCC3)n2)c1 [Compound 155, 6-Morpholin-4-yl-4-(2-morpholin-4-yl-ethoxy)-pyridine-2-carboxylic acid (3-dimethylamino-phenyl)-amide] | < 1000
14 | NC(=O)c1ccc(NC(=O)c2cc(OCCN3CCOCC3)nc(N3CCOCC3)n2)nc1 [Compound 150, 2-Morpholin-4-yl-6-(2-morpholin-4-yl-ethoxy)-pyrimidine-4-carboxylic acid (5-carbamoyl-pyridin-2-yl)-amide] | < 1000
15 | Cc1cccc(NC(=O)Nc2cc(OCCN3CCOCC3)nc(N3CCOCC3)n2)c1 [Compound 9, 1-[2-Morpholin-4-yl-6-(2-morpholin-4-yl-ethoxy)-pyrimidin-4-yl]-3-m-tolyl-urea] | < 1000
16 | Cc1[nH]c2ccc(NC(=O)c3cc(N4CCOCC4)nc(N4CCOCC4)n3)cc2c1C [Compound 22, 2,6-Di-morpholin-4-yl-pyrimidine-4-carboxylic acid (2,3-dimethyl-1H-indol-5-yl)-amide] | < 1000
17 | CC(=O)N1CCN(c2cc(C(=O)Nc3ccc4[nH]c5c(c4c3)CCCC5)nc(N3CCOCC3)n2)CC1 [Compound 262, 6-(4-acetylpiperazin-1-yl)-2-morpholino-N-(2,3,4,9-tetrahydro-1H-carbazol-6-yl)pyrimidine-4-carboxamide] | < 1000

Now from value to compound:

Row | IC50 [nM] | Compound
18 | < 1000 | Cc1[nH]c2ccc(NC(=O)c3cc(CN4CCOCC4)nc(N4CCOCC4)n3)cc2c1C [Compound 259, N-(2,3-dimethyl-1H-indol-5-yl)-2-morpholino-6-(morpholinomethyl)pyrimidine-4-carboxamide]
19 | ≥ 1000 | Cc1cccc(NC(=O)c2cc(OCCN3CCOC3=O)nc(N3CCOCC3)n2)c1 [Compound 44, 2-Morpholin-4-yl-6-[2-(2-oxo-oxazolidin-3-yl)-ethoxy]-pyrimidine-4-carboxylic acid m-tolylamide]
20 | < 1000 | Cc1cccc(NC(=O)c2cc(OCCc3ccccn3)nc(N3CCOCC3)n2)c1 [Compound 5, 2-Morpholin-4-yl-6-(2-pyridin-2-yl-ethoxy)-pyrimidine-4-carboxylic acid m-tolylamide]
21 | ≥ 1000 | CN(C)c1ccc(NC(=O)c2cc(OCCN3CCOCC3)nc(N3CCOCC3)n2)cc1 [Compound 57, 2-Morpholin-4-yl-6-(2-morpholin-4-yl-ethoxy)-pyrimidine-4-carboxylic acid (4-dimethylamino-phenyl)-amide]
22 | ≥ 1000 | COCCN(C)c1cc(C(=O)Nc2ccc(Br)c(C)c2)nc(N2CCOCC2)n1 [Compound 230, 6-[(2-Methoxy-ethyl)-methyl-amino]-2-morpholin-4-yl-pyrimidine-4-carboxylic acid (4-bromo-3-methyl-phenyl)-amide]
23 | < 1000 | Cc1[nH]c2ccc(NC(=O)c3cc(OCCO)nc(N4CCOCC4)n3)cc2c1C [Compound 307, 6-(2-Hydroxy-ethoxy)-2-morpholin-4-yl-pyrimidine-4-carboxylic acid (2,3-dimethyl-1H-indol-5-yl)-amide]
24 | ≥ 1000 | O=C(Nc1ccc2ncsc2c1)c1cc(OCCc2ccccn2)nc(N2CCOCC2)n1 [Compound 36, 2-Morpholin-4-yl-6-(2-pyridin-2-yl-ethoxy)-pyrimidine-4-carboxylic acid benzothiazol-6-ylamide]
25 | ≥ 1000 | CCOc1cc(N2CCOCC2)c(OCC)cc1NC(=O)c1cc(N(C)CCOC)nc(N2CCOCC2)n1 [Compound 204, N-(2,5-diethoxy-4-morpholinophenyl)-6-((2-methoxyethyl)(methyl)amino)-2-morpholinopyrimidine-4-carboxamide]
26 | < 1000 | CCN(C)c1cccc(NC(=O)c2cc(OCCN3CCOCC3)nc(N3CCOCC3)n2)c1 [Compound 312, 2-Morpholin-4-yl-6-(2-morpholin-4-yl-ethoxy)-pyrimidine-4-carboxylic acid [3-(ethyl-methyl-amino)-phenyl]-amide]
27 | < 1000 | COCCN(C)c1cc(C(=O)Nc2ccc(F)c(N(C)C)c2)nc(N2CCOCC2)n1 [Compound 215, N-(3-(dimethylamino)-4-fluorophenyl)-6-((2-methoxyethyl)(methyl)amino)-2-morpholinopyrimidine-4-carboxamide]
28 | ≥ 1000 | CC1CCc2ccc(NC(=O)c3cc(OCCN4CCOCC4)nc(N4CCOCC4)n3)cc2N1C (centres unmarked) [Compound 321, 2-Morpholin-4-yl-6-(2-morpholin-4-yl-ethoxy)-pyrimidine-4-carboxylic acid (1,2-dimethyl-1,2,3,4-tetrahydro-quinolin-7-yl)-amide]
29 | ≥ 1000 | Cc1ccc(NC(=O)c2cc(OCCN3CCOCC3)nc(N3CCOCC3)n2)cn1 [Compound 297, 2-Morpholin-4-yl-6-(2-morpholin-4-yl-ethoxy)-pyrimidine-4-carboxylic acid (6-methyl-pyridin-3-yl)-amide]
30 | ≥ 1000 | COCCN(C)c1cc(C(=O)Nc2ccc3c(C(F)(F)F)cc(C(F)(F)F)nc3n2)nc(N2CCOCC2)n1 [Compound 243, 6-[(2-Methoxy-ethyl)-methyl-amino]-2-morpholin-4-yl-pyrimidine-4-carboxylic acid (5,7-bis-trifluoromethyl-[1,8]naphthyridin-2-yl)-amide]
31 | ≥ 1000 | O=C(Nc1cccc(Cl)c1)c1cc(OCCN2CCOCC2)nc(N2CCOCC2)n1 [Compound 287, 2-Morpholin-4-yl-6-(2-morpholin-4-yl-ethoxy)-pyrimidine-4-carboxylic acid (3-chloro-phenyl)-amide]
32 | < 1000 | COCCN(C)c1cc(NC(=O)Nc2ccc3[nH]c(C)c(C)c3c2)nc(N2CCOCC2)n1 [Compound 265, 1-(2,3-dimethyl-1H-indol-5-yl)-3-(6-((2-methoxyethyl)(methyl)amino)-2-morpholinopyrimidin-4-yl)urea]
33 | < 1000 | Cc1[nH]c2ccc(NC(=O)c3cc(OCCc4ccccn4)nc(N4CCOCC4)n3)cc2c1C [Compound 2, 2-Morpholin-4-yl-6-(2-pyridin-2-yl-ethoxy)-pyrimidine-4-carboxylic acid (2,3-dimethyl-1H-indol-5-yl)-amide]
34 | < 1000 | Cc1[nH]c2ccc(NC(=O)c3cc(N(C)CC(=O)N4CCOCC4)nc(N4CCOCC4)n3)cc2c1C [Compound 114, 6-[Methyl-(2-morpholin-4-yl-2-oxo-ethyl)-amino]-2-morpholin-4-yl-pyrimidine-4-carboxylic acid (2,3-dimethyl-1H-indol-5-yl)-amide]
35 | ≥ 1000 | COCCN(C)c1cc(C(=O)Nc2ccc3c(c2)OCCO3)nc(N2CCOCC2)n1 [Compound 200, N-(2,3-dihydrobenzo[b][1,4]dioxin-6-yl)-6-((2-methoxyethyl)(methyl)amino)-2-morpholinopyrimidine-4-carboxamide]
